Laboratory results taken from patent US20170143716A1, “METHOD OF TREATING PROLIFERATIVE DISORDERS AND OTHER PATHOLOGICAL CONDITIONS MEDIATED BY BCR-ABL, C-KIT, DDR1, DDR2 OR PDGF-R KINASE ACTIVITY” (Novartis AG, priority 2009, published 2017).

Columns and labels:
[1] = PK study in healthy volunteers (4-way crossover, morning vs evening dosing); type: in vivo, human
Experimental: The increased exposure with QHS was confirmed in a study investigating nilotinib pharmacokinetics in healthy volunteers (HV) comparing cohorts receiving 600 mg morning dose or 600 mg morning dose QHS, respectively. In a single center, 4-way crossover study (n=16-24), HV group A was administered 300 mg nilotinib (in the form of nilotinib monohydrochloride monohydrate) in the morning, 2 hours after breakfast; HV group B was administered 300 mg nilotinib (in the form of nilotinib monohydrochloride monohydrate) in the evening, 2 hours after diner; HV group C was administered 600 mg nilotinib (in the form of nilotinib monohydrochloride monohydrate) in the evening, 2 hours after diner; and HV group D was administered 600 mg nilotinib (in the form of nilotinib monohydrochloride monohydrate) in the evening, 4 hours after diner.
The nilotinib PK was compared when administered in the evening versus administration in the morning (B vs. A) and the potential residual food effect on nilotinib absorption was assessed (D vs. C).

[2] = Study in CML patients obtaining 400 mg nilotinib twice daily (trough concentrations C0, C12); type: in vivo, human; conditions: 21 CML patients, 400 mg twice daily
Experimental: 21 Patients were treated with 400 mg nilotinib twice daily. Blood samples were collected prior to morning dose (C0) and prior to evening dose (C12). […] With other words, the trough concentration of nilotinib in the morning was 60 to 80% higher than that observed in the evening.

[3] = human, in vivo, po, 400 mg
Experimental: The effect of food on the pharmacokinetic parameters of 400 mg oral dose of nilotinib in the formulation mentioned above was studied in human subjects. […] In view of these findings, it is recommended that nilotinib shall not be taken with a meal in order to minimize the effect of food on nilotinib bioavailability. A statement in this regard is, for instance, included in sections 4.2, 4.4 and 4.5 of the SPC (Summary of Product Characteristics) of the marketing authorization for Tasigna™ issued by the European Medicines Agency (EMEA).

[4] = 300 mg evening vs 300 mg morning
[5] = 600 mg evening 4 hours after diner vs 2 hours after diner
[6] = group A: 300 mg in the morning, 2 hours after breakfast, N = 20
[7] = group B: 300 mg in the evening, 2 hours after diner, N = 18
[8] = group C: 600 mg in the evening, 2 hours after diner, N = 22
[9] = group D: 600 mg in the evening, 4 hours after diner, N = 22

AUC0-12, Geometric Mean Ratio (90% Cls) B vs A [1, 4]: 1.21 | AUC0-24, Geometric Mean Ratio (90% Cls) B vs A [1, 4]: 1.21 | AUC0-inf, Geometric Mean Ratio (90% Cls) B vs A [1, 4]: 1.09 | AUC0-tlast, Geometric Mean Ratio (90% Cls) B vs A [1, 4]: 1.14 | Cmax, Geometric Mean Ratio (90% Cls) B vs A [1, 4]: 1.14 | tmax, Geometric Mean Ratio (90% Cls) B vs A [1, 4]: 0.49 | AUC0-12, Geometric Mean Ratio (90% Cls) D vs C [1, 5]: 0.93 | AUC0-24, Geometric Mean Ratio (90% Cls) D vs C [1, 5]: 0.93 | AUC0-inf, Geometric Mean Ratio (90% Cls) D vs C [1, 5]: 0.94 | AUC0-tlast, Geometric Mean Ratio (90% Cls) D vs C [1, 5]: 0.94 | Cmax, Geometric Mean Ratio (90% Cls) D vs C [1, 5]: 0.92 | tmax, Geometric Mean Ratio (90% Cls) D vs C [1, 5]: −0.49 | AUC0-12 [1, 6]: 4577 ng·h/mL | AUC0-24 [1, 6]: 7781 ng·h/mL | AUC0-inf [1, 6]: 14920 ng·h/mL | AUC0-tlast [1, 6]: 13650 ng·h/mL | Cmax [1, 6]: 577 ng/mL | t1/2 [1, 6]: 20.3 h | tmax [1, 6]: 4.0 h | AUC0-12 [1, 7]: 5537 ng·h/mL | AUC0-24 [1, 7]: 9435 ng·h/mL | AUC0-inf [1, 7]: 16272 ng·h/mL | AUC0-tlast [1, 7]: 15556 ng·h/mL | Cmax [1, 7]: 655 ng/mL | t1/2 [1, 7]: 14.5 h | tmax [1, 7]: 4.0 h | AUC0-12 [1, 8]: 7124 ng·h/mL | AUC0-24 [1, 8]: 11857 ng·h/mL | AUC0-inf [1, 8]: 23216 ng·h/mL | AUC0-tlast [1, 8]: 20819 ng·h/mL | Cmax [1, 8]: 854 ng/mL | t1/2 [1, 8]: 20.5 h | tmax [1, 8]: 4.0 h | AUC0-12 [1, 9]: 6650 ng·h/mL | AUC0-24 [1, 9]: 111064 ng·h/mL | AUC0-inf [1, 9]: 21937 ng·h/mL | AUC0-tlast [1, 9]: 19591 ng·h/mL | Cmax [1, 9]: 782 ng/mL | t1/2 [1, 9]: 19.9 h | tmax [1, 9]: 4.0 h | exposure higher following the evening dose than the morning dose ([1]; healthy volunteers, evening vs morning dose): up to 20% | ratio C0/C12 (concentration prior to morning dose / prior to evening dose) [2]: 1.7 | increase in total exposure (AUC0-t) with food [3]: 29% | total exposure (AUC0-t) increase with food [3]: 82%
Compound: Cc1cn(-c2cc(NC(=O)c3ccc(C)c(Nc4nccc(-c5cccnc5)n4)c3)cc(C(F)(F)F)c2)cn1 [nilotinib, 4-methyl-3-[[4-(3-pyridinyl)-2-pyrimidinyl]amino]-N-[5-(4-methyl-1H-imidazol-1-yl)-3-(trifluoromethyl)phenyl] benzamide]
